Experimental data: US20080009418A1, “Selective Inhibitors” (Alchemia LTD., priority 2004, published 2008)

Assays:
Settings in all cases: compound at 10 μM
Mouse urotensin (mUR2) = biological target: T1, Mouse urotensin (mUR2) (Mus musculus, UniProt Q8VIH9); experiment: Radioligand binding, mouse urotensin mUR2 membranes, FlashPlate, [125I]-Urotensin II
T1 construct: purchased Perkin Elmer Biosignal
T1 sequence (Q8VIH9 1-385): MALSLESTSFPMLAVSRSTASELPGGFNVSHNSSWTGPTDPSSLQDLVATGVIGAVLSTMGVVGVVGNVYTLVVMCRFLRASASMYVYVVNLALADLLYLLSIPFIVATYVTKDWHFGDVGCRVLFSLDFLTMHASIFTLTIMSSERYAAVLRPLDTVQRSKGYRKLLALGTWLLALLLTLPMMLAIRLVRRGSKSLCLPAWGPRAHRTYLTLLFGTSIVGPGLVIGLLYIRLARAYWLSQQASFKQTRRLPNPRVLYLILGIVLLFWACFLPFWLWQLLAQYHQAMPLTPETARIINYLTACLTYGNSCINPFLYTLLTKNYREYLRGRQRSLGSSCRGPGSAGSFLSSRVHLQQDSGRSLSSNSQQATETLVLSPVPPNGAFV
Method in brief: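 Cloned mouse urotensin (mUR2) receptor membranes from Perkin Elmer Biosignal were immobilized in FlashPlate microplates using a proprietary coating. Each well got 19.5 μl buffer, then 0.5 μl of DMSO, reference ligand, or compound. Adding 5 μl of [125I]-Urotensin II, diluted to 5× final concentration in binding buffer, started binding. Plates were sealed with TopSeal-A and incubated 1 hour at room temperature in the dark. Wells were counted for 30 seconds each on a TopCount after a 60-second delay, and percentage inhibition was calculated.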

Human Melanocortin (MC4) = biological target: T2, Human Melanocortin (MC4) (Homo sapiens, UniProt P32245); experiment: Radioligand binding, human melanocortin MC4 membranes, FlashPlate, [125I]-NDP-αMSH
T2 construct: purchased Perkin Elmer Biosignal
T2 sequence (P32245 whole entry): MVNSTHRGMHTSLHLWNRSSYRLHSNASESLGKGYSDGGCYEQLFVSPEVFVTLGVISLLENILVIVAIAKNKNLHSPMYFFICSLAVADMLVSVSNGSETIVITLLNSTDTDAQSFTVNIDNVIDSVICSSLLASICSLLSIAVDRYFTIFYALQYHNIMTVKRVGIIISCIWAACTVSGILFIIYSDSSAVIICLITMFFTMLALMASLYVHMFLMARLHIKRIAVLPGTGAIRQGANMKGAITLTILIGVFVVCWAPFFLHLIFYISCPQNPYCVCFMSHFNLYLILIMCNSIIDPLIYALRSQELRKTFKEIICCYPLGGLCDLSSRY
Method in brief: (§1)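 Cloned human receptor membranes were coated onto FlashPlate wells and incubated with radioligand and compound (added from a 0.5 mM DMSO daughter plate) for 1 hour at room temperature in the dark. Scintillation counting gave percent inhibition, with DMSO defining total and reference ligand defining non-specific binding.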

Human κ-Opioid (KOP) = biological target: T3, Human κ-Opioid (KOP) (Homo sapiens, UniProt P41145); experiment: Radioligand binding, human κ-opioid (KOP) membranes, filtration, [3H]-Diprenorphine
T3 construct: purchased Perkin Elmer Biosignal
T3 sequence (P41145 whole entry): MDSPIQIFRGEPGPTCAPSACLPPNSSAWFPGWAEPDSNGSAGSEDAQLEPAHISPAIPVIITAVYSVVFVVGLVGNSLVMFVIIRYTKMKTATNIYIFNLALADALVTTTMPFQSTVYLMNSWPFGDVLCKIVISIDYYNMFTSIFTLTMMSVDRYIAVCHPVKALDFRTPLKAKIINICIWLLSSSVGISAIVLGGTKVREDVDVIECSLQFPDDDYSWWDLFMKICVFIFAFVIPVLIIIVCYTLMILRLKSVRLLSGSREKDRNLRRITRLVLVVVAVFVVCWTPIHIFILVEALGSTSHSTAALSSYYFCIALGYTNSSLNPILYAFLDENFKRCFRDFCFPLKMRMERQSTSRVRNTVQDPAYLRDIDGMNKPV
Method in brief: (§2)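 Percent inhibition of radioligand binding measured on recombinant human membranes: NK1 with [125I]-Substance P, KOP with [3H]-Diprenorphine. Incubation 1 h at room temperature, then harvest onto 0.3% PEI-soaked filters, cold Tris-HCl pH 7.4 washes and scintillation counting; non-specific binding from reference ligand wells.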

Human μ-opioid (MOP) = biological target: T4, Human μ-opioid (MOP) (Homo sapiens, UniProt P35372); experiment: Radioligand binding, human μ-opioid (MOP) membranes, FlashPlate, [3H]-Naloxone
T4 construct: purchased Perkin Elmer Biosignal
T4 sequence (P35372 whole entry): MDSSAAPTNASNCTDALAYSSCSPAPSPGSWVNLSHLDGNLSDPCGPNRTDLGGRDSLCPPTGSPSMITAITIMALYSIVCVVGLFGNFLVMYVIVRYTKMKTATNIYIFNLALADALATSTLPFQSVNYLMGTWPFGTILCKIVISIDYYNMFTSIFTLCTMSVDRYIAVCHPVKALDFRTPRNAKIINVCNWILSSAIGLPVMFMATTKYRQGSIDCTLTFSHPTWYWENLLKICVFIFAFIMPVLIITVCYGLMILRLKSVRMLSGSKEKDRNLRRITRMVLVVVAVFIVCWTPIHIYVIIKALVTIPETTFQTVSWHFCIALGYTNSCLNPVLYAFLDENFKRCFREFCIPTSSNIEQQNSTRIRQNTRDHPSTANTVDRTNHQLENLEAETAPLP
Method in brief: as §1

[1] = biological target: T5, Human neuropeptide Y (NPY-Y1) (Homo sapiens, UniProt P25929); experiment: Radioligand binding, human neuropeptide Y NPY-Y1 membranes, FlashPlate, [125I]-PYY
T5 construct: purchased Perkin Elmer Biosignal
T5 sequence (P25929 1-384): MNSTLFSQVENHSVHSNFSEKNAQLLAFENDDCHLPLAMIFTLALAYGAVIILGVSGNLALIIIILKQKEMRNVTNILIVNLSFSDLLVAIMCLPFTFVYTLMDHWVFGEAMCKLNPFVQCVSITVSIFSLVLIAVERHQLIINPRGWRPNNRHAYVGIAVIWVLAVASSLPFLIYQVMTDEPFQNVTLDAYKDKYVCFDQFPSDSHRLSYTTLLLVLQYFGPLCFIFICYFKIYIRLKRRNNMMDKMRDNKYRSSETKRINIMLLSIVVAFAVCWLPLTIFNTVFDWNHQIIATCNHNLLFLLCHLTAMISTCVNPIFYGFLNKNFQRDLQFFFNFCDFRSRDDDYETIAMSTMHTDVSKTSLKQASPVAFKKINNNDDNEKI
Method in brief: as §1

[2] = biological target: T6, Human melanin-concentrating hormone (MCH1) (Homo sapiens, UniProt Q99705); experiment: Radioligand binding, human melanin-concentrating hormone MCH1 membranes, FlashPlate, [125I]-S36057
T6 construct: purchased Perkin Elmer Biosignal
T6 sequence (Q99705 whole entry): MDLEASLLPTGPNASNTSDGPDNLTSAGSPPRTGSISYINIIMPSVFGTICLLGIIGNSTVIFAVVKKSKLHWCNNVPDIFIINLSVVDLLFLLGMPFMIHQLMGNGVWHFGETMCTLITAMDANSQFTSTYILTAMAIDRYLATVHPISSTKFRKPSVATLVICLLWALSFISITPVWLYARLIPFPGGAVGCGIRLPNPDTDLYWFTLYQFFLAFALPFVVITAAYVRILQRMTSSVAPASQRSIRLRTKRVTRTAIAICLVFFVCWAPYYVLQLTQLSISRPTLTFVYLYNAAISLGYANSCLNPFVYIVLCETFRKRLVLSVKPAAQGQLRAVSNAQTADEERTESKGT
Method in brief: as §1

Human δ-opioid (DOP) = biological target: T7, Human δ-opioid (DOP) (Homo sapiens, UniProt P41143); experiment: Radioligand binding, human δ-opioid (DOP) membranes, FlashPlate, [3H]-Bremazocine
T7 construct: purchased Perkin Elmer Biosignal
T7 sequence (P41143 whole entry): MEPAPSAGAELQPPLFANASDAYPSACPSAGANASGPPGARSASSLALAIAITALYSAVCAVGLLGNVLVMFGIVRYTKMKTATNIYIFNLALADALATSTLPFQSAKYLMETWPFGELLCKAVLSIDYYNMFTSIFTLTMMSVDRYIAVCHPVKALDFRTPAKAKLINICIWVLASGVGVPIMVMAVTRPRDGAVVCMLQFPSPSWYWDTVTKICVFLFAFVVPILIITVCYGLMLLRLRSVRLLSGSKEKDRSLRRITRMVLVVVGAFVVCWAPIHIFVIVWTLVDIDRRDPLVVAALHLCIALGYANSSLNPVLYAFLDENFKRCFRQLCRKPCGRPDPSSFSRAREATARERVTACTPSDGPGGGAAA
Method in brief: as §1

Human melanocortin (MC5) = biological target: T8, Human melanocortin (MC5) (Homo sapiens, UniProt P33032); experiment: Radioligand binding, human melanocortin MC5 membranes, FlashPlate, [125I]-NDP-αMSH
T8 construct: purchased Perkin Elmer Biosignal
T8 sequence (P33032 whole entry): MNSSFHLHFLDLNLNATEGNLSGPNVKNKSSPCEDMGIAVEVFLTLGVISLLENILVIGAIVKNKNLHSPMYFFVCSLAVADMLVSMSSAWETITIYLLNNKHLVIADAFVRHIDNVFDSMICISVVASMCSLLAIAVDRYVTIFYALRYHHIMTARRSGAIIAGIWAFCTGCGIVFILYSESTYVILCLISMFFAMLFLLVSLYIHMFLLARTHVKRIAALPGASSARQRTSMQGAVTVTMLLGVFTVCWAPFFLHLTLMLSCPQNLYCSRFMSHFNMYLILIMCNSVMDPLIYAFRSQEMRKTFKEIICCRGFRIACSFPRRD
Method in brief: as §1

Human opioid (ORL1) = biological target: T9, Human opioid (ORL1) (Homo sapiens, UniProt P41146); experiment: Radioligand binding, human opioid ORL1 membranes, FlashPlate, [125I]-Nociceptin
T9 construct: purchased Perkin Elmer Biosignal
T9 sequence (P41146 whole entry): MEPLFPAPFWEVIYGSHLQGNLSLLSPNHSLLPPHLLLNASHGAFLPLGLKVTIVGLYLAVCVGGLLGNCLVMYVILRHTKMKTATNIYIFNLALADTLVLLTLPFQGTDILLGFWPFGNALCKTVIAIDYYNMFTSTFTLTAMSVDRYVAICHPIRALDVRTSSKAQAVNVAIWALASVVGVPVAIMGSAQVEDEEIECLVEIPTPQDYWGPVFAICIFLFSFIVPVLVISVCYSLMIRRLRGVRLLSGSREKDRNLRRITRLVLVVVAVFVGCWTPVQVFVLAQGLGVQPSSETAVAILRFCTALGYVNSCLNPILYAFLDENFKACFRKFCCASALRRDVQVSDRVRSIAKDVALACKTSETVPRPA
Method in brief: as §1

Human neurokinin (NK1) = biological target: T10, Human neurokinin (NK1) (Homo sapiens, UniProt P25103); experiment: Radioligand binding, human neurokinin NK1 membranes, filtration, [125I]-Substance P
T10 construct: purchased Perkin Elmer Biosignal
T10 sequence (P25103 whole entry): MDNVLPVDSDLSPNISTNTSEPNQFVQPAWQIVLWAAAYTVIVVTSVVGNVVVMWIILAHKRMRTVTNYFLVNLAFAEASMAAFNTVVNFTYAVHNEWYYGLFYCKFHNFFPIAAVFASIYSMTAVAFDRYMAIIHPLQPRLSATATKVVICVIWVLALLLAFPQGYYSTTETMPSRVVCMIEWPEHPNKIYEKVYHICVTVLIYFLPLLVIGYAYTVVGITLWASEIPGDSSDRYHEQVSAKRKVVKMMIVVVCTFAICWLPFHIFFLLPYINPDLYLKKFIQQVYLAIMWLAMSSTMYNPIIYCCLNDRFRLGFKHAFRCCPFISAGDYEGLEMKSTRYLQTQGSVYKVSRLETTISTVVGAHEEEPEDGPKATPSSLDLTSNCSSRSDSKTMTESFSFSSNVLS
Method in brief: as §2

Human Melanocortin (MC3) = biological target: T11, Human Melanocortin (MC3) (Homo sapiens, UniProt P41968); experiment: Radioligand binding, human melanocortin MC3 membranes, FlashPlate, [125I]-NDP-αMSH
T11 construct: purchased Perkin Elmer Biosignal
T11 sequence (P41968 whole entry): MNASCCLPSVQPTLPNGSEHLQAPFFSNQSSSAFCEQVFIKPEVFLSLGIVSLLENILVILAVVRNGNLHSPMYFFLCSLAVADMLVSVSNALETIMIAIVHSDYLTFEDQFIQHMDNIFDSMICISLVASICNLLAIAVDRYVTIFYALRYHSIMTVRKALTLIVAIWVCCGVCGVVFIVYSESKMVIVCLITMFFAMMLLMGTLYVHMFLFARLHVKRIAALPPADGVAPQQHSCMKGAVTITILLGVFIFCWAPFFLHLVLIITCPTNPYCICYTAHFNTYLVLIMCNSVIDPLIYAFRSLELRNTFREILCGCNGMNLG
Method in brief: as §1

## COC[C@H]1OC(OCc2ccc(Cl)cc2)[C@H](NC(=O)CCCN)[C@@H](OCc2ccc3ccccc3c2)[C@@H]1O (single isomer, unassigned) [compound 344]
Mouse urotensin (mUR2); [125I]-Urotensin II
  A11: inhibition of radioligand binding, mouse urotensin (mUR2): − (“−” indicates less than 50% inhibition at 10 μM)
Human Melanocortin (MC4); [125I]-NDP-αMSH
  A4: inhibition of radioligand binding, human melanocortin (MC4): − (“−” indicates less than 50% inhibition at 10 μM)
Human κ-Opioid (KOP); [3H]-Diprenorphine
  A2: inhibition of radioligand binding, human κ-opioid (KOP): − (“−” indicates less than 50% inhibition at 10 μM)
Human μ-opioid (MOP); [3H]-Naloxone
  A7: inhibition of radioligand binding, human μ-opioid (MOP): − (“−” indicates less than 50% inhibition at 10 μM)
[1]; [125I]-PYY
  A9: inhibition of radioligand binding, human neuropeptide Y (NPY-Y1): − (“−” indicates less than 50% inhibition at 10 μM)
[2]; [125I]-S36057
  A6: inhibition of radioligand binding, human melanin-concentrating hormone (MCH1): − (“−” indicates less than 50% inhibition at 10 μM)
Human δ-opioid (DOP); [3H]-Bremazocine
  A1: inhibition of radioligand binding, human δ-opioid (DOP): − (“−” indicates less than 50% inhibition at 10 μM)
Human melanocortin (MC5); [125I]-NDP-αMSH
  A5: inhibition of radioligand binding, human melanocortin (MC5): − (“−” indicates less than 50% inhibition at 10 μM)
Human opioid (ORL1); [125I]-Nociceptin
  A10: inhibition of radioligand binding, human opioid (ORL1): − (“−” indicates less than 50% inhibition at 10 μM)
Human neurokinin (NK1); [125I]-Substance P
  A8: inhibition of radioligand binding, human neurokinin (NK1): + (“+” indicates greater than 50% inhibition at 10 μM)
Human Melanocortin (MC3); [125I]-NDP-αMSH
  A3: inhibition of radioligand binding, human melanocortin (MC3): − (“−” indicates less than 50% inhibition at 10 μM)

## CSC1O[C@H](COCc2ccc3ccccc3c2)[C@@H](O)[C@@H](OCc2ccc(Cl)cc2)[C@H]1NC(=O)CN (stereo partly shown) [compound 280]
Mouse urotensin (mUR2); [125I]-Urotensin II, FlashPlate
  A11: inhibition of radioligand binding: − (“−” indicates less than 50% inhibition at 10 μM)
Human Melanocortin (MC4); [125I]-NDP-αMSH, FlashPlate
  A4: inhibition of radioligand binding: − (“−” indicates less than 50% inhibition at 10 μM)
Human κ-Opioid (KOP); [3H]-Diprenorphine, filtration
  A2: inhibition of radioligand binding: − (“−” indicates less than 50% inhibition at 10 μM)
Human μ-opioid (MOP); [3H]-Naloxone, FlashPlate
  A7: inhibition of radioligand binding: − (“−” indicates less than 50% inhibition at 10 μM)
[1]; [125I]-PYY, FlashPlate
  A9: inhibition of radioligand binding: − (“−” indicates less than 50% inhibition at 10 μM)
[2]; [125I]-S36057, FlashPlate
  A6: inhibition of radioligand binding: − (“−” indicates less than 50% inhibition at 10 μM)
Human δ-opioid (DOP); [3H]-Bremazocine, FlashPlate
  A1: inhibition of radioligand binding: − (“−” indicates less than 50% inhibition at 10 μM)
Human melanocortin (MC5); [125I]-NDP-αMSH, FlashPlate
  A5: inhibition of radioligand binding: − (“−” indicates less than 50% inhibition at 10 μM)
Human opioid (ORL1); [125I]-Nociceptin, FlashPlate
  A10: inhibition of radioligand binding: − (“−” indicates less than 50% inhibition at 10 μM)
Human neurokinin (NK1); [125I]-Substance P, filtration
  A8: inhibition of radioligand binding: + (“+” indicates greater than 50% inhibition at 10 μM)
Human Melanocortin (MC3); [125I]-NDP-αMSH, FlashPlate
  A3: inhibition of radioligand binding: − (“−” indicates less than 50% inhibition at 10 μM)

## CSC1OC(COCc2ccccc2)C(O)C(OCc2cccc(N)c2)C1NC(=O)Cc1c[nH]c2ccccc12 (stereo not shown) [compound 322]
Mouse urotensin (mUR2); [125I]-Urotensin II
  A11: inhibition of radioligand binding, mouse urotensin (mUR2): − (“−” indicates less than 50% inhibition at 10 μM)
Human Melanocortin (MC4); [125I]-NDP-αMSH
  A4: inhibition of radioligand binding, human melanocortin (MC4): − (“−” indicates less than 50% inhibition at 10 μM)
Human κ-Opioid (KOP); [3H]-Diprenorphine
  A2: inhibition of radioligand binding, human κ-opioid (KOP): − (“−” indicates less than 50% inhibition at 10 μM)
Human μ-opioid (MOP); [3H]-Naloxone
  A7: inhibition of radioligand binding, human μ-opioid (MOP): − (“−” indicates less than 50% inhibition at 10 μM)
[1]; [125I]-PYY
  A9: inhibition of radioligand binding, human neuropeptide Y (NPY-Y1): − (“−” indicates less than 50% inhibition at 10 μM)
[2]; [125I]-S36057
  A6: inhibition of radioligand binding, human melanin-concentrating hormone (MCH1): − (“−” indicates less than 50% inhibition at 10 μM)
Human δ-opioid (DOP); [3H]-Bremazocine
  A1: inhibition of radioligand binding, human δ-opioid (DOP): − (“−” indicates less than 50% inhibition at 10 μM)
Human melanocortin (MC5); [125I]-NDP-αMSH
  A5: inhibition of radioligand binding, human melanocortin (MC5): − (“−” indicates less than 50% inhibition at 10 μM)
Human opioid (ORL1); [125I]-Nociceptin
  A10: inhibition of radioligand binding, human opioid (ORL1): − (“−” indicates less than 50% inhibition at 10 μM)
Human neurokinin (NK1); [125I]-Substance P
  A8: inhibition of radioligand binding, human neurokinin (NK1): + (“+” indicates greater than 50% inhibition at 10 μM)
Human Melanocortin (MC3); [125I]-NDP-αMSH
  A3: inhibition of radioligand binding, human melanocortin (MC3): − (“−” indicates less than 50% inhibition at 10 μM)

## COCC1OC(OCc2ccccc2)C(NC(=O)CNC(=N)N)C(OCc2ccccc2)C1O (stereo not shown) [compound 171]
Mouse urotensin (mUR2); [125I]-Urotensin II
  A11 radioligand binding, percentage inhibition: − (“−” indicates less than 50% inhibition at 10 μM)
Human Melanocortin (MC4); [125I]-NDP-αMSH
  A4 radioligand binding, percentage inhibition: − (“−” indicates less than 50% inhibition at 10 μM)
Human κ-Opioid (KOP); [3H]-Diprenorphine
  A2 radioligand binding, percentage inhibition: − (“−” indicates less than 50% inhibition at 10 μM)
Human μ-opioid (MOP); [3H]-Naloxone
  A7 radioligand binding, percentage inhibition: − (“−” indicates less than 50% inhibition at 10 μM)
[1]; [125I]-PYY
  A9 radioligand binding, percentage inhibition: − (“−” indicates less than 50% inhibition at 10 μM)
[2]; [125I]-S36057
  A6 radioligand binding, percentage inhibition: − (“−” indicates less than 50% inhibition at 10 μM)
Human δ-opioid (DOP); [3H]-Bremazocine
  A1 radioligand binding, percentage inhibition: − (“−” indicates less than 50% inhibition at 10 μM)
Human melanocortin (MC5); [125I]-NDP-αMSH
  A5 radioligand binding, percentage inhibition: + (“+” indicates greater than 50% inhibition at 10 μM)
Human opioid (ORL1); [125I]-Nociceptin
  A10 radioligand binding, percentage inhibition: − (“−” indicates less than 50% inhibition at 10 μM)
Human neurokinin (NK1); [125I]-Substance P
  A8 radioligand binding, percentage inhibition: + (“+” indicates greater than 50% inhibition at 10 μM)
Human Melanocortin (MC3); [125I]-NDP-αMSH
  A3 radioligand binding, percentage inhibition: − (“−” indicates less than 50% inhibition at 10 μM)

## CO[C@H]1[C@H](O)[C@@H](COCc2ccc(-c3ccccc3)cc2)OC(OCc2ccc3ccccc3c2)[C@@H]1NC(=O)CNC(=N)N (stereo partly shown) [compound 66]
Mouse urotensin (mUR2); mouse urotensin mUR2 membranes
  A11 radioligand binding inhibition: − (“−” indicates less than 50% inhibition at 10 μM)
Human Melanocortin (MC4); human melanocortin MC4 membranes
  A4 radioligand binding inhibition: + (“+” indicates greater than 50% inhibition at 10 μM)
Human κ-Opioid (KOP); human κ-opioid (KOP) membranes
  A2 radioligand binding inhibition: − (“−” indicates less than 50% inhibition at 10 μM)
Human μ-opioid (MOP); human μ-opioid (MOP) membranes
  A7 radioligand binding inhibition: + (“+” indicates greater than 50% inhibition at 10 μM)
[1]; human NPY-Y1 membranes
  A9 radioligand binding inhibition: − (“−” indicates less than 50% inhibition at 10 μM)
[2]; human MCH1 membranes
  A6 radioligand binding inhibition: + (“+” indicates greater than 50% inhibition at 10 μM)
Human δ-opioid (DOP); human δ-opioid (DOP) membranes
  A1 radioligand binding inhibition: − (“−” indicates less than 50% inhibition at 10 μM)
Human melanocortin (MC5); human melanocortin MC5 membranes
  A5 radioligand binding inhibition: + (“+” indicates greater than 50% inhibition at 10 μM)
Human opioid (ORL1); human ORL1 membranes
  A10 radioligand binding inhibition: − (“−” indicates less than 50% inhibition at 10 μM)
Human neurokinin (NK1); human neurokinin NK1 membranes
  A8 radioligand binding inhibition: + (“+” indicates greater than 50% inhibition at 10 μM)
Human Melanocortin (MC3); human melanocortin MC3 membranes
  A3 radioligand binding inhibition: + (“+” indicates greater than 50% inhibition at 10 μM)
